These results are taken from US11738029B2, “Rucaparib particles and uses thereof” (CRITITECH, INC., priority 2021, dated 2023).

Molecules are shown by their SMILES.

What all share (format): physicochemical
Series [1] in a line: Bulk density analysis by modified USP <616> Bulk Density of Powders Method I (bulk and tapped). The text has this:
As used herein, the bulk density (not tapped) of a particle is the ratio of the mass to the volume (including the interparticulate void volume) of an untapped powder sample.
As used herein, the tapped density of a particle is obtained by mechanically tapping a graduated cylinder containing the sample until little further volume change is observed.
(§1) • Particle Size Distribution (PSD) by Laser Diffraction • Imaging by Scanning Electron Microscopy (SEM) • Specific Surface Area (SSA) determination by BET Sorptometry • Crystalline/amorphous phase determination by Powder X-ray Diffraction (PXRD) • Bulk density analysis by modified USP <616>Bulk Density of Powders Method I

Series [2] in a line: Particle size distribution (PSD) by laser diffraction, Malvern Mastersizer 3000. Conditions: dispersed in ethyl acetate. As for the experimental part:
as §1
Particle size analyses were conducted on a Malvern Mastersizer™ 3000 using the Hydro MV™ dispersion unit. A non-validated general PSD method/dispersant method was used to analyze the rucaparib samples. The sample preparation procedure performed was as follows: • Weigh 10 to 20 mg of rucaparib into a 30-mL vial, add 20 mL of ethyl acetate. Disperse the sample by vortexing then sonicating the suspension in an ultrasonic bath for 1 minute. Then transfer the sample suspension to the Malvern Hydro MV™ dispersion unit to obtain obscuration between 5 and 15%.
Particle size distributions can be viewed in Table 1.

Series [3] can be described thus: Specific surface area (SSA) by BET sorptometry. The method, then:
As used herein, the “specific surface area” is the total surface area of the rucaparib particle per unit of rucaparib mass as measured by the Brunauer-Emmett-Teller (“BET”) isotherm (i.e.: the BET SSA). As will be understood by those of skill in the art, the SSA is determined on a per gram basis and takes into account both agglomerated and non-agglomerated rucaparib particles in the composition. The BET specific surface area test procedure is a compendial method included in both the United States Pharmaceopeia and the European Pharmaceopeia. The rucaparib particles have a specific surface area (SSA) of at least 12 m^2/g. In various further embodiments, the rucaparib particles have a SSA of at least 13 m^2/g, 14 m^2/g, 15 m^2/g, 16 m^2/g, 17 m^2/g, 18 m^2/g, 19 m^2/g, 20 m^2/g, 21 m^2/g, 22 m^2/g, 23 m^2/g, 24 m^2/g, 25 m^2/g, 26 m^2/g, 27 m^2/g, 28 m^2/g, 29 m^2/g, or 30 m^2/g.
as §1
Specific Surface Area Surface area analyses were conducted on a Quantachrome NOVAtouch™ LX2 BET Sorptometer. Surface area results can be found in Table 1.

Series [4] is described as follows: Solubility testing, shake-flask method. Conditions: 24 hours at 20-25° C. As for the experimental part: The solubility was determined by using a shake-flask method. The drug was added in excess to each solution prepared in duplicate. The vials were placed on a mechanical shaker for 24 hours at 20-25° C. After shaking, solution was removed and filtered through a 0.45 μm PTFE syringe filter and analyzed by UV/Visible spectrophotometry.

As to `CNCc1ccc(-c2[nH]c3cc(F)cc4c3c2CCNC4=O)cc1` [Rucaparib, (8-fluoro-2-{4-[(methylamino)methyl]phenyl}-1,3,4,5-tetrahydro-6H-azepino[5,4,3-cd]indol-6-one ((1S,4R)-7,7-dimethyl-2-oxobicyclo[2.2.1]hept-1-yl)], the “Bulk Density” value in series [1] (not tapped) stood at 0.332 gm/cm^3. In addition, in series [1] (tapped), the “Tapped Density” value was found to be 0.427 gm/cm^3. Also, in series [2], the “PSD - Masterisizer Dv-10” value is 2.96 μ. Moreover, the “PSD - Masterisizer Dv-50” value in series [2] came to 13.6 μ. Further, the “PSD - Masterisizer Dv-90” value in series [2] amounted to 26.8 μ. In series [3] (BET), the “Surface Area” value was determined as 6.59 m^2/gm. Besides, the “specific surface area measurement” value in series [3] (material used in dissolution testing) was 6.59 m2/g. The “Concentration of Rucaparib Found” value in series [4] (25% ethanol) was found to be 115 µg/mL; in series [4] (25% methanol), 68.8 µg/mL; in series [4] (40% ethanol), 394 µg/mL; in series [4] (40% methanol), 739 µg/mL.
